Reference: patent publication US5126336A, “Antibiotic C-3 catechol-substituted cephalosporin compounds, compositions and method of use thereof” (Bristol-Myers Squibb Company, priority 1990, dated 1992)
≈ marks a conversion by molar mass, not a printed value.

Experiments:
Assay in all cases: MIC, agar dilution
Format in all cases: cell-based
X. maltophilia GN 12873 = settings: Stenotrophomonas maltophilia, GN12873, Mueller-Hinton agar pH 7.2, 32° C., 18 hr, 10^6 cells/ml
Method: (§1) Minimum inhibitory concentrations (MICs) of the present series of cephalosporins were determined against 32 strains of test organisms by two-fold serial agar dilution method in Mueller-Hinton agar. Geometric means of MICs were calculated against six groups of the test organisms which are classified as follows and summarized in Table 1.
(§2) Medium; MuellerHinton agar (pH = 7.2)
(§3) Incubation temperature: 32° C., 18 hr
(§4) Inoculum size; 10^6 cells/ml

P. aeruginosa A20599 = settings: Pseudomonas aeruginosa, Mueller-Hinton agar pH 7.2, 32° C., 18 hr, 10^6 cells/ml
Method: as §1, §2, §3, §4

S. epidermidis 11-1230 = settings: Staphylococcus epidermidis, 111230, Mueller-Hinton agar pH 7.2, 32° C., 18 hr, 10^6 cells/ml
Method: as §1, §2, §3, §4

K. pneumoniae PCI 602 = settings: Klebsiella pneumoniae, PCI602, Mueller-Hinton agar pH 7.2, 32° C., 18 hr, 10^6 cells/ml
Method: as §1, §2, §3, §4

M. morgani 1510 = settings: Mueller-Hinton agar pH 7.2, 32° C., 18 hr, 10^6 cells/ml
Method: as §1, §2, §3, §4

M. morgani 1510/9 = settings: Mueller-Hinton agar pH 7.2, 32° C., 18 hr, 10^6 cells/ml
Method: as §1, §2, §3, §4

C. terrigena IFO 12685 = settings: Mueller-Hinton agar pH 7.2, 32° C., 18 hr, 10^6 cells/ml
Method: as §1, §2, §3, §4

C. freundii GN 7391 = settings: Citrobacter freundii, GN7391, Mueller-Hinton agar pH 7.2, 32° C., 18 hr, 10^6 cells/ml
Method: as §1, §2, §3, §4

P. rettgeri IPM-14 = settings: Providencia rettgeri, IPM14, Mueller-Hinton agar pH 7.2, 32° C., 18 hr, 10^6 cells/ml
Method: as §1, §2, §3, §4

P. aeruginosa IPM-8 = settings: Pseudomonas aeruginosa, IPM8, Mueller-Hinton agar pH 7.2, 32° C., 18 hr, 10^6 cells/ml
Method: as §1, §2, §3, §4

E. faecalis A9808 = settings: Enterococcus faecalis, Mueller-Hinton agar pH 7.2, 32° C., 18 hr, 10^6 cells/ml
Method: as §1, §2, §3, §4

S. aureus 209P = settings: Staphylococcus aureus; S. aureus 209P; Mueller-Hinton agar pH 7.2; 32° C., 18 hr; 10^6 cells/ml; read-out: MIC
Method: as §1, §2, §3, §4

S. aureus 4-1015 (MRSA) = settings: Staphylococcus aureus, Mueller-Hinton agar pH 7.2, 32° C., 18 hr, 10^6 cells/ml
Method: as §1, §2, §3, §4

P. vulgaris IPM-13 = settings: Proteus vulgaris, IPM13, Mueller-Hinton agar pH 7.2, 32° C., 18 hr, 10^6 cells/ml
Method: as §1, §2, §3, §4

S. marcescens IPM-16 = settings: Serratia marcescens, IPM16, Mueller-Hinton agar pH 7.2, 32° C., 18 hr, 10^6 cells/ml
Method: as §1, §2, §3, §4

S. aureus IPM-24 (MRSA) = settings: Staphylococcus aureus, Mueller-Hinton agar pH 7.2, 32° C., 18 hr, 10^6 cells/ml
Method: as §1, §2, §3, §4

P. aeruginosa KKA 19 = settings: Pseudomonas aeruginosa, KKA19, Mueller-Hinton agar pH 7.2, 32° C., 18 hr, 10^6 cells/ml
Method: as §1, §2, §3, §4

P. cepacia No. 651 = settings: Burkholderia cepacia, Mueller-Hinton agar pH 7.2, 32° C., 18 hr, 10^6 cells/ml
Method: as §1, §2, §3, §4

M. luteus 1001 = settings: Micrococcus luteus, Mueller-Hinton agar pH 7.2, 32° C., 18 hr, 10^6 cells/ml
Method: as §1, §2, §3, §4

S. marcescens IPM-15 = settings: Serratia marcescens, IPM15, Mueller-Hinton agar pH 7.2, 32° C., 18 hr, 10^6 cells/ml
Method: as §1, §2, §3, §4

X. maltophilia No. 661 = settings: Stenotrophomonas maltophilia, Mueller-Hinton agar pH 7.2, 32° C., 18 hr, 10^6 cells/ml
Method: as §1, §2, §3, §4

E. faecium A24817 = settings: Enterococcus faecium, Mueller-Hinton agar pH 7.2, 32° C., 18 hr, 10^6 cells/ml
Method: as §1, §2, §3, §4

P. cepacia A21213 = settings: Burkholderia cepacia, Mueller-Hinton agar pH 7.2, 32° C., 18 hr, 10^6 cells/ml
Method: as §1, §2, §3, §4

E. cloacae IPM-12 = settings: Enterobacter cloacae, IPM12, Mueller-Hinton agar pH 7.2, 32° C., 18 hr, 10^6 cells/ml
Method: as §1, §2, §3, §4

P. aeruginosa IPM-9 = settings: Pseudomonas aeruginosa, IPM9, Mueller-Hinton agar pH 7.2, 32° C., 18 hr, 10^6 cells/ml
Method: as §1, §2, §3, §4

E. coli 255 = settings: Escherichia coli, Mueller-Hinton agar pH 7.2, 32° C., 18 hr, 10^6 cells/ml
Method: as §1, §2, §3, §4

B. subtilis PCI 219 = settings: Bacillus subtilis, PCI219, Mueller-Hinton agar pH 7.2, 32° C., 18 hr, 10^6 cells/ml
Method: as §1, §2, §3, §4

P. mirabilis IFO-2849 = settings: Proteus mirabilis, IFO2849, Mueller-Hinton agar pH 7.2, 32° C., 18 hr, 10^6 cells/ml
Method: as §1, §2, §3, §4

E. coli Juhl A15119 = settings: Escherichia coli, JUHLA15119; E. coli Juhl A15119; Mueller-Hinton agar pH 7.2; 32° C., 18 hr; 10^6 cells/ml; read-out: MIC
Method: as §1
(§5) In vivo antibacterial activity was determined against three bacterial infections (S. aureus Smith, E. coli Juhl and P. aeruginosa A9843A) by intramuscular administration to mice just after the bacterial challenge. PD50 values are summarized in Table 3 in comparsion with the MIC values against the corresponding organisms.
as §2, §3, §4

S. aureus Smith = settings: Staphylococcus aureus; S. aureus Smith; Mueller-Hinton agar pH 7.2; 32° C., 18 hr; 10^6 cells/ml; read-out: MIC
Method: as §1, §5, §2, §3, §4

P. aeruginosa A9843A = settings: Pseudomonas aeruginosa, A9843A, 18 h, pH 7.2
Method: as §1, §5, §2, §3, §4

`CC(C)(O/N=C(\C(=O)NC1C(=O)N2C(C(=O)[O-])=C(/C=C/C[n+]3cc4cc(O)c(O)cc4cn3)CS[C@H]12)c1csc(N)n1)C(=O)O` (some centres unmarked) [Ii, 7-[(Z)-2-(2-Aminothiazol-4-yl)-2-(1-methyl-1-carboxyethoxy-imino)acetamido]-3-[(E)-3-(6,7-dihydroxyphthalazin-2-io)-1-propen-1-yl]-3-cephem-4-carboxylate] showed an MIC (X. maltophilia GN 12873) of 100 µg/mL (≈ 153 µM), an MIC (P. aeruginosa A20599) of 0.2 µg/mL (≈ 0.305 µM) and an MIC (S. epidermidis 11-1230) of 25 µg/mL (≈ 38.1 µM). It also gave an MIC (K. pneumoniae PCI 602) of less than 0.0063 µg/mL, an MIC (M. morgani 1510) of 0.8 µg/mL (≈ 1.22 µM) and an MIC (M. morgani 1510/9) of 0.05 µg/mL (≈ 0.0763 µM). For the same molecule, the MIC (C. terrigena IFO 12685) was 0.8 µg/mL (≈ 1.22 µM), the MIC (C. freundii GN 7391) was 25 µg/mL (≈ 38.1 µM) and the MIC (P. rettgeri IPM-14) was 0.1 µg/mL (≈ 0.153 µM). It also gave an MIC (P. aeruginosa IPM-8) of 0.2 µg/mL (≈ 0.305 µM), an MIC (E. faecalis A9808) greater than 100 µg/mL and an MIC (S. aureus 209P) of 25 µg/mL (≈ 38.1 µM). The MIC (S. aureus 4-1015 (MRSA)) was greater than 100 µg/mL, the MIC (P. vulgaris IPM-13) was 12.5 µg/mL (≈ 19.1 µM) and the MIC (S. marcescens IPM-16) was 1.6 µg/mL (≈ 2.44 µM). The MIC (S. aureus IPM-24 (MRSA)) was greater than 100 µg/mL, the MIC (P. aeruginosa KKA 19) was 0.8 µg/mL (≈ 1.22 µM) and the MIC (P. cepacia No. 651) was 1.6 µg/mL (≈ 2.44 µM). It also gave an MIC (M. luteus 1001) of 3.1 µg/mL (≈ 4.73 µM), an MIC (S. marcescens IPM-15) greater than 100 µg/mL and an MIC (X. maltophilia No. 661) of 50 µg/mL (≈ 76.3 µM). It also gave an MIC (E. faecium A24817) greater than 100 µg/mL, an MIC (P. cepacia A21213) of 0.8 µg/mL (≈ 1.22 µM) and an MIC (E. cloacae IPM-12) of 0.8 µg/mL (≈ 1.22 µM). It also gave an MIC (P. aeruginosa IPM-9) greater than 100 µg/mL, an MIC (E. coli 255) of 0.013 µg/mL (≈ 0.0198 µM) and an MIC (B. subtilis PCI 219) of 12.5 µg/mL (≈ 19.1 µM). The MIC (P. mirabilis IFO-2849) was 0.025 µg/mL (≈ 0.0381 µM), the MIC (E. coli Juhl A15119) was 0.2 µg/mL (≈ 0.305 µM) and the MIC (S. aureus Smith) was 25 µg/mL (≈ 38.1 µM). For the same molecule, the MIC (P. aeruginosa A9843A) was 0.1 µg/mL (≈ 0.153 µM).

`CC(C)(O/N=C(\C(=O)NC1C(=O)N2C(C(=O)O)=C(/C=C/Cn3cnc4cc(O)c(O)cc43)CS[C@H]12)c1csc(N)n1)C(=O)O` (some centres unmarked) [Io, 7-[(Z)-2-(2-Aminothiazol-4-yl)-2-(1-methyl-1-carboxyethoxy-imino)acetamido]-3-[(E)-3-(5,6-dihydroxybenzimidazol-1-yl)-1-propen-1-yl]-3-cephem-4-carboxylic acid] showed an MIC (X. maltophilia GN 12873) of 3.1 µg/mL (≈ 4.82 µM), an MIC (P. aeruginosa A20599) of 0.8 µg/mL (≈ 1.24 µM) and an MIC (S. epidermidis 11-1230) of 50 µg/mL (≈ 77.7 µM). It also gave an MIC (K. pneumoniae PCI 602) of 0.05 µg/mL (≈ 0.0777 µM), an MIC (M. morgani 1510) of 3.1 µg/mL (≈ 4.82 µM) and an MIC (M. morgani 1510/9) of 0.8 µg/mL (≈ 1.24 µM). The MIC (C. terrigena IFO 12685) was 3.1 µg/mL (≈ 4.82 µM), the MIC (C. freundii GN 7391) was 25 µg/mL (≈ 38.8 µM) and the MIC (P. rettgeri IPM-14) was 1.6 µg/mL (≈ 2.49 µM). It also gave an MIC (P. aeruginosa IPM-8) of 0.4 µg/mL (≈ 0.621 µM), an MIC (E. faecalis A9808) greater than 100 µg/mL and an MIC (S. aureus 209P) of 12.5 µg/mL (≈ 19.4 µM). It also gave an MIC (S. aureus 4-1015 (MRSA)) greater than 100 µg/mL, an MIC (P. vulgaris IPM-13) of 50 µg/mL (≈ 77.7 µM) and an MIC (S. marcescens IPM-16) of 25 µg/mL (≈ 38.8 µM). For the same molecule, the MIC (S. aureus IPM-24 (MRSA)) was 100 µg/mL (≈ 155 µM), the MIC (P. aeruginosa KKA 19) was 0.8 µg/mL (≈ 1.24 µM) and the MIC (P. cepacia No. 651) was 6.3 µg/mL (≈ 9.79 µM). For the same molecule, the MIC (M. luteus 1001) was 6.3 µg/mL (≈ 9.79 µM), the MIC (S. marcescens IPM-15) was greater than 100 µg/mL and the MIC (X. maltophilia No. 661) was 1.6 µg/mL (≈ 2.49 µM). It also gave an MIC (E. faecium A24817) greater than 100 µg/mL, an MIC (P. cepacia A21213) of 6.3 µg/mL (≈ 9.79 µM) and an MIC (E. cloacae IPM-12) of 12.5 µg/mL (≈ 19.4 µM). For the same molecule, the MIC (P. aeruginosa IPM-9) was 25 µg/mL (≈ 38.8 µM), the MIC (E. coli 255) was 0.2 µg/mL (≈ 0.311 µM) and the MIC (B. subtilis PCI 219) was 12.5 µg/mL (≈ 19.4 µM). It also gave an MIC (P. mirabilis IFO-2849) of 0.2 µg/mL (≈ 0.311 µM), an MIC (E. coli Juhl A15119) of 1.6 µg/mL (≈ 2.49 µM) and an MIC (S. aureus Smith) of 25 µg/mL (≈ 38.8 µM). For the same molecule, the MIC (P. aeruginosa A9843A) was 0.4 µg/mL (≈ 0.621 µM).
